These results are taken from US11819510B2, “Food composition for ameliorating cerebrovascular diseases containing 2′- fucosyllactose and pharmaceutical composition for preventing or treating cerebrovascular diseases containing 2′-fucosyllactose” (Advanced Protein Technologies Corp., priority 2020, dated 2023).

Data set [1] deals with CRP-induced aggregation of mouse platelets. Put plainly: Platelet aggregation induced by CRP. The following applies: CRP 0.15 μg/ml; 2′-fucosyllactose 300 to 1,000 μM, FOS and 3-fucosyllactose 1,000 μM; pretreated 37° C. 15 minutes; vs vehicle; FIG. 2A. The format is cell-based.
For data set [2], the system named is collagen-induced aggregation of mouse platelets. Put plainly: Platelet aggregation induced by collagen. The format is cell-based. Conditions: collagen 0.5 μg/ml; 2′-fucosyllactose 300 to 1,000 μM, FOS and 3-fucosyllactose 1,000 μM; pretreated 37° C. 15 minutes; vs vehicle; FIG. 2B.
In data set [3] the test system is thrombin-induced aggregation of mouse platelets. Description: Platelet aggregation induced by thrombin. The format is cell-based. The following applies: thrombin 0.025 U/ml; pretreated 37° C. 15 minutes; vs vehicle; FIG. 2C. The method, then:
(§1) Platelets were collected from the abdominal vein of mice (6-8 weeks of age) using a syringe pretreated with a citrate-dextrose solution (ACD, Sigma). After centrifugation at 300×g at room temperature for 20 minutes to obtain platelet-rich plasma (PRP), 0.5 μM PGE1 was added to the plasma isolated from red blood cells, followed by re-centrifugation at 700×g for 4 minutes. The precipitated platelets were washed with HEPES-Tyrode buffer (5 mM HEPES/NaOH, pH 7.3, 5 mM glucose, 136 mM NaCl, 12 mM NaHCO3, 2.7 mM KCl) containing 10% ACD, followed by centrifugation at 700×g for 5 min. The precipitated platelets were adjusted to a concentration of 3×10^8 cells/mL in HEPES-Tyrode buffer and used in this experiment.
(§2) Mouse platelets immersed in HEPES-Tyrode buffer at a concentration of 3×10^8 cells/mL were pre-treated with a vehicle (distilled water), 1,000 μM FOS, 3′-fucosyllactose, and various concentrations (300 to 1,000 μM) of 2′-fucosyllactose at 37° C. for 15 minutes, and were then activated awith CRP, collagen, thrombin, and thromboxane A2 analogues in a platelet aggregation system. Platelet aggregation was induced at a rate of 1,000 rpm at 37° C. and then measured in a platelet aggregation meter (Chrono-log Corp, Havertown, PA). […]

The test system of data set [4] is thromboxane A2 analogue-induced aggregation of mouse platelets. Put plainly: Platelet aggregation induced by thromboxane A2 analogue (U46619). The following applies: thromboxane A2 analogue 3 μM; pretreated 37° C. 15 minutes; vs vehicle; FIG. 2D. The format is cell-based. The procedure:
as §1, §2

In data set [5] the test system is P-selectin of mouse platelet α-granule. Put plainly: Flow cytometry of platelet P-selectin exposure after CRP activation. It counts as cell-based. The following applies: 300 to 1,000 μM, concentration-dependent; 0.15 μg/ml CRP 5 minutes; vs vehicle; FIG. 3A. The method, then: as §1
(§3) The activity of each of platelet P-selectin and αIIbβ3, which are known biomarkers of platelet activity, was measured using a flow cytometer (Gallios, Beckman Coulter). Mouse platelets were pretreated with a vehicle (distilled water), 1,000 μM FOS and 3-fucosyllactose, and various concentrations (300 to 1,000 μM) of 2′-fucosyllactose at 37° C. for 15 minutes, and were then activated with 0.15 ug/ml CRP at 37° C. for 5 minutes, after which the activity thereof was measured using P-selectin and αIIbβ3 antibodies.
(§4) The mechanism of inhibition of platelet activation by HMOs was determined. […]

The subject of data set [6] is platelet αIIbβ3 integrin. Put plainly: Flow cytometry of platelet αIIbβ3 integrin activation after CRP activation. It counts as cell-based, mouse. Conditions: 300 to 1,000 μM, concentration-dependent; 0.15 μg/ml CRP 5 minutes; vs vehicle; FIG. 3B. The procedure:
as §1, §3, §4
For orientation: Flow cytometry measures light scatter and fluorescence of single cells or particles in a stream.

Data set [7] has as its system HepG2 cells. Put plainly: HMO cytotoxicity test (CCK assay). The format is cell-based. Conditions: 24 hours treatment, FIG. 4. The method, then:
In this experimental example, the cytotoxicity of HMOs was evaluated by CCK assay (Oh, Y. C.; Jeong, Y. H.; Pak, M. E.; Go, Y., Banhasasim-Tang Attenuates Lipopolysaccharide-Induced Cognitive Impairment by Suppressing Neuroinflammation in Mice. Nutrients 2020, 12, (7)). No protocol for measuring cytotoxicity to platelets has been established, so HepG2 cells were pretreated with an HMO (2′-fucosyllactose or 3-fucosyllactose) in a concentration-dependent manner. After 24 hours, each well was treated with a cell-counting kit solution (Dojindo Molecular Technologies, Inc.), and further incubated for 1 hour, and then absorbance was measured at a wavelength of 450 nm using a microplate reader.

For data set [8], the system named is carotid artery thrombosis. Description: FeCl3-induced carotid artery thrombosis mouse model, blood flow measurement. The format is in vivo. The following applies: 7 days, FeCl3 (10%) mouse model, vehicle 7.47 minutes. The method, then:
Male C57BL/6 mice (6-8 weeks old) used in the experiment were purchased from Dooyeol Biotech Co., Ltd., were acclimatized for a predetermined period at 23±1° C. and 56% relative humidity while a general diet was provided thereto for 1 week, and were then used for the experiment. In the following, animal experiments were performed in accordance with the guide for the animal study protocols approved by the Korea Institute of Oriental Medicine Institutional Animal Care and Use Committee (approval number: 20-058). FeCl3 (10%) was used to establish a thrombosis-induced mouse model. Mice were orally administered with 2′-fucosyllactose (500, 1,000 mg/kg BW), 3-fucosyllactose (1,000 mg/kg BW), or ASA (100 mg/kg BW) for 7 days. 2 hours after the last administration, the mice were anesthetized with 2% isoflurane, the left carotid artery was isolated from each mouse, and filter paper (2 mm in diameter) soaked with FeCl3 (10%) was placed on the carotid artery for 2 minutes to induce thrombosis. Blood flow was measured using a blood flow meter (AD meter).

On to 2′-fucosyllactose, for which the “inhibition of platelet aggregation induced by CRP” value (from here on “inhibition … by CRP”) in data set [1] was “significantly inhibited”. Moreover, the “inhibition of platelet aggregation induced by collagen” value (“inhibition … by collagen” below) in data set [2] is recorded as “significantly inhibited”. Moreover, the “inhibition of platelet aggregation induced by thrombin” value in data set [3] is “did not exhibit an inhibitory effect”. Moreover, in data set [4], the “inhibition of platelet aggregation induced by thromboxane A2 analogue” value is listed as “did not exhibit an inhibitory effect”. Besides, in data set [5], the “inhibition of activation of P-selectin of mouse platelet α-granule” value was “significantly inhibit”. Besides, the “inhibition of activation of platelet αIIbβ3 integrin” value in data set [6] is on record as “significantly inhibit”. Further, the “cell death of HepG2 (cell viability, CCK assay)” value in data set [7] was “not observed”. The “average carotid artery occlusion time” value turned out to be 11.79 min in data set [8] (500 mg/kg BW oral) and 14.52 min in data set [8] (1,000 mg/kg BW oral).

In the case of 3-fucosyllactose [reference compound], in data set [1], the “inhibition … by CRP” value is reported as “not significantly inhibited”. Also, the “inhibition … by collagen” value in data set [2] is “not significantly inhibited”. Moreover, in data set [7], the “cell death of HepG2 (cell viability, CCK assay)” value is recorded as “not observed”. Moreover, the “average carotid artery occlusion time” value in data set [8] (1,000 mg/kg BW oral) was 8.18 min.

As for `CC(=O)Oc1ccccc1C(=O)O` [aspirin, reference compound], the “carotid artery occlusion time” value in data set [8] (100 mg/kg BW oral, positive control) turned out to be 18.05 min.

Consider fructooligosaccharide [FOS], for which the “inhibition … by CRP” value in data set [1] is “not significantly inhibited”. In addition, the “inhibition … by collagen” value in data set [2] is “not significantly inhibited”.
